The subject of the assay is NMDAR-dependent EPSCs. Format: cell-based, rat.

The values that follow come from US12583892B2 (priority 2020, dated 2026).

For the compound `CC(C(O)c1ccc(O)cc1)N1CCC(Cc2ccccc2)CC1` (stereo not shown) [ifenprodil], the “NMDARs-dependent EPSCs, young neurons” value was “inhibition”.
